PubChem BioAssay (NCI)
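Growth conditions: 96-well plates. Treatment: test compound, 48 hours, 5 concentrations. Analysis: linear interpolation between bracketing concentrations; unreached endpoints set to highest concentration. At the TGI there is no net growth.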

Legend:
Assay in all cases: growth of human tumour cells (NCI), 48 h
HOP-92 NSCLC = system: HOP-92 NSCLC
SR leukemia = system: SR leukemia
SW-620 colon = system: SW-620 colon
MDA-MB-231 breast = system: MDA-MB-231 breast
K-562 leukemia = system: K-562 leukemia
MOLT-4 leukemia = system: MOLT-4 leukemia
ACHN renal = system: ACHN renal
U251 CNS = system: U251 CNS
CAKI-1 renal = system: CAKI-1 renal
786-0 renal = system: 786-0 renal
UACC-62 melanoma = system: UACC-62 melanoma
BT-549 breast = system: BT-549 breast
COLO 205 colon = system: COLO 205 colon
NCI/ADR-RES ovarian = system: NCI/ADR-RES ovarian
SNB-75 CNS = system: SNB-75 CNS
SK-MEL-2 melanoma = system: SK-MEL-2 melanoma
OVCAR-5 ovarian = system: OVCAR-5 ovarian
T-47D breast = system: T-47D breast
MDA-MB-435 = system: MDA-MB-435
TK-10 renal = system: TK-10 renal
MCF7 breast = system: MCF7 breast
NCI-H23 lung = system: NCI-H23 lung
UACC-257 melanoma = system: UACC-257 melanoma
HCT-15 colon = system: HCT-15 colon
M14 melanoma = system: M14 melanoma
HS 578T breast = system: HS 578T breast
PC-3 prostate = system: PC-3 prostate
HOP-62 NSCLC = system: HOP-62 NSCLC
SNB-19 CNS = system: SNB-19 CNS
SK-MEL-5 melanoma = system: SK-MEL-5 melanoma
HCT-116 colon = system: HCT-116 colon
HCC-2998 colon = system: HCC-2998 colon
RPMI-8226 leukemia = system: RPMI-8226 leukemia
RXF 393 renal = system: RXF 393 renal
LOX IMVI melanoma = system: LOX IMVI melanoma
HT29 colon = system: HT29 colon
IGROV1 ovarian = system: IGROV1 ovarian
KM12 colon = system: KM12 colon
SF-539 CNS = system: SF-539 CNS
MDA-N = system: MDA-N
DU-145 prostate = system: DU-145 prostate
OVCAR-4 ovarian = system: OVCAR-4 ovarian
CCRF-CEM leukemia = system: CCRF-CEM leukemia
SK-OV-3 ovarian = system: SK-OV-3 ovarian
NCI-H460 lung = system: NCI-H460 lung
UO-31 renal = system: UO-31 renal
SF-268 CNS = system: SF-268 CNS
SF-295 CNS = system: SF-295 CNS
SK-MEL-28 melanoma = system: SK-MEL-28 melanoma
HL-60(TB) leukemia = system: HL-60(TB) leukemia
OVCAR-3 ovarian = system: OVCAR-3 ovarian
SN12C renal = system: SN12C renal
A549 NSCLC = system: A549 NSCLC
MALME-3M melanoma = system: MALME-3M melanoma
A498 renal = system: A498 renal
OVCAR-8 ovarian = system: OVCAR-8 ovarian
EKVX NSCLC = system: EKVX NSCLC
NCI-H522 lung = system: NCI-H522 lung
NCI-H226 lung = system: NCI-H226 lung

Measured: TGI

COc1ccc(C2C(C#N)=C(S)N(C3OC(COC(C)=O)C(OC(C)=O)C(OC(C)=O)C3OC(C)=O)C(C)=C2C(C)=O)cc1 (stereo unspecified)
83.1 µM: T-47D breast
not listed: A498 renal | OVCAR-8 ovarian | EKVX NSCLC | NCI-H522 lung | NCI-H226 lung
> 100 µM: all other assays above

Cn1nc2ccc([N+](=O)[O-])cc2[n+]1[O-]
not listed: HOP-92 NSCLC | SW-620 colon | RPMI-8226 leukemia | LOX IMVI melanoma | SF-268 CNS | SK-MEL-28 melanoma | HL-60(TB) leukemia
> 100 µM: all other assays above
